Results on four molecules are retold here after patent US12617779B2, “Self degradation-type CDK9 inhibitor prodrug and liposome encapsulating same” (Sumitomo Pharma Co., Ltd., priority 2021, dated 2026).

Molecules are shown by their SMILES.

Data set [1] is described as follows: Evaluation of conversion rate to active form in human plasma (Experimental Example 3). It is filed as in vitro ADME. The note with it: 0.2 μmol/L; for Conversion to Alvocidib in human plasma: Examples up to 60 minutes, Comparative Examples up to 120 minutes. Put shortly:
(§1)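 Test compound at 0.2 μmol/L was incubated at 37° C in human or BALB/c mouse plasma and sampled at 0, 30 and 60 min or at 0, 60 and 120 min. Compound and Alvocidib were quantified by LC-MS/MS peak area. Attrition is relative to 0 min; conversion is relative to 0.2 μmol/L Alvocidib reference.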

The nature of data set [2]: Evaluation of conversion rate to active form in BALB/c mouse plasma (Experimental Example 3). It is filed as in vitro ADME. To be noted: 0.2 μmol/L; for Conversion to Alvocidib in BALB/c mouse plasma: Examples up to 60 minutes, Comparative Examples up to 120 minutes. The method, boiled down:
as §1

For the molecule `C[C@H](N)C(=O)O[C@@H]1CN(C)CC[C@@H]1c1c(O)cc(O)c2c(=O)cc(-c3ccccc3Cl)oc12` [Comparative Example 7, reference compound], the “Production rate (%) of Alvocidib” value is recorded as 6% in data set [1] (human, 0 min); 26% in data set [1] (human, 60 min); 32% in data set [1] (human, 120 min); 1% in data set [2] (BALB/c, mouse, 0 min); 64% in data set [2] (BALB/c, mouse, 60 min); 79% in data set [2] (BALB/c, mouse, 120 min). The “Residual rate (%) of test compound” value in data set [1] (human, 0 min) is listed as 100%; in data set [1] (human, 60 min), 77%; in data set [1] (human, 120 min), 65%; in data set [2] (BALB/c, mouse, 0 min), 100%; in data set [2] (BALB/c, mouse, 60 min) it was 25%; in data set [2] (BALB/c, mouse, 120 min), 10%.
As to `CN1CC[C@H](c2c(O)cc(O)c3c(=O)cc(-c4ccccc4Cl)oc23)[C@H](OC(=O)[C@@H](N)CO)C1` [Comparative Example 9, reference compound], the “Production rate (%) of Alvocidib” value in data set [1] (human, 0 min) amounted to 3%; in data set [1] (human, 60 min), 18%; in data set [1] (human, 120 min) it was 25%; in data set [2] (BALB/c, mouse, 0 min) it was 3%; in data set [2] (BALB/c, mouse, 60 min), 33%; in data set [2] (BALB/c, mouse, 120 min), 43%. Also, the “Residual rate (%) of test compound” value in data set [1] (human, 0 min) worked out at 100%; in data set [1] (human, 60 min), 85%; in data set [1] (human, 120 min) it was 80%; in data set [2] (BALB/c, mouse, 0 min), 100%; in data set [2] (BALB/c, mouse, 60 min), 70%; in data set [2] (BALB/c, mouse, 120 min), 54%.
For the molecule `CN1CC[C@H](c2c(OC(=O)N(C)C[C@@H]3CCCCN3)cc(O)c3c(=O)cc(-c4ccccc4Cl)oc23)[C@H](O)C1` [Example 3, 2-(2-chlorophenyl)-5-hydroxy-8-[(3S,4R)-3-hydroxy-1-methylpiperidin-4-yl]-4-oxo-4H-1-benzopyran-7-yl methyl{[(2S)-piperidin-2-yl]methyl}carbamate], the “Residual rate (%) of test compound” value came to 100% in data set [1] (Human plasma, 37° C., 0 min); 3% in data set [1] (Human plasma, 37° C., 30 min); 0% in data set [1] (Human plasma, 37° C., 60 min); 100% in data set [2] (Mouse plasma, 37° C., 0 min); 8% in data set [2] (Mouse plasma, 37° C., 30 min); 0% in data set [2] (Mouse plasma, 37° C., 60 min). For the same molecule, the “Conversion to Alvocidib in human plasma” value in data set [1] (37° C.) is on record as “proceeded rapidly”. In addition, the “Conversion to Alvocidib in BALB/c mouse plasma” value in data set [2] (37° C.) is on record as “proceeded rapidly”.
Consider `CN1CC[C@H](c2c(OC(=O)N(C)C[C@H]3CCCCN3)cc(O)c3c(=O)cc(-c4ccccc4Cl)oc23)[C@H](O)C1` [Example 4, 2-(2-chlorophenyl)-5-hydroxy-8-[(3S,4R)-3-hydroxy-1-methylpiperidin-4-yl]-4-oxo-4H-1-benzopyran-7-yl methyl{[(2R)-piperidin-2-yl]methyl}carbamate], for which the “Residual rate (%) of test compound” value in data set [1] (Human plasma, 37° C., 0 min) amounted to 100%; in data set [1] (Human plasma, 37° C., 30 min), 4%; in data set [1] (Human plasma, 37° C., 60 min), 4%; in data set [2] (Mouse plasma, 37° C., 0 min), 100%; in data set [2] (Mouse plasma, 37° C., 30 min), 5%; in data set [2] (Mouse plasma, 37° C., 60 min), 3%. The “Conversion to Alvocidib in human plasma” value in data set [1] (37° C.) is given as “proceeded rapidly”. In data set [2] (37° C.), the “Conversion to Alvocidib in BALB/c mouse plasma” value is on record as “proceeded rapidly”.
